Tests used:
[1] = Brain to plasma partition coefficient, Kp of the compound in Sprague-Dawley rat at 0.2 to […], iv administered as cassette dose measured at […] post dose by LC-MS/MS analysis; type: ADME, organism-based; conditions: brain and plasma
Cytochrome P450 1A2 = molecular target: T1, Cytochrome P450 1A2 (Homo sapiens, UniProt P05177); assay: Inhibition of CYP1A2 in human liver microsomes using phenacetin as substrate preincubated for 15 mins followed by NADPH addition measured after 8 mins by LC-MS/MS analysis; type: ADME
T1 sequence (P05177 whole entry): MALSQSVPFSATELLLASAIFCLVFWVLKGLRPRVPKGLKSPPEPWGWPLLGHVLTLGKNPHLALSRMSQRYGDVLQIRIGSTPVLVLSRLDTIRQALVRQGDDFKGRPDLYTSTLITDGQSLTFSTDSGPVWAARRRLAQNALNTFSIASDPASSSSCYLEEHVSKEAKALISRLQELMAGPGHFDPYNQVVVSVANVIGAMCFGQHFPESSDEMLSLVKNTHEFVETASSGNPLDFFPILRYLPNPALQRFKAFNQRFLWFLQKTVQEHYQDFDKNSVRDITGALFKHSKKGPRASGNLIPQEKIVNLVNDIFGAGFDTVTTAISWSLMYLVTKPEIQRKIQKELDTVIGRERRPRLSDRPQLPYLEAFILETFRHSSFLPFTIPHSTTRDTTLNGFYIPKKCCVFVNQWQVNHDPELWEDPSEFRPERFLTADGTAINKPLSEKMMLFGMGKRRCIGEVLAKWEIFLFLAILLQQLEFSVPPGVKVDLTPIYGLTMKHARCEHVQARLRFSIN

Cytochrome P450 3A4 = Cytochrome P450 3A4 (Homo sapiens, UniProt P08684); assay: Inhibition of CYP3A4 in human liver microsomes using midazolam as substrate preincubated for 15 mins followed by NADPH addition measured after 8 mins by LC-MS/MS analysis; type: ADME
Cytochrome P450 2D6 = Cytochrome P450 2D6 (Homo sapiens, UniProt P10635); assay: Inhibition of CYP2D6 in human liver microsomes using dextromethorphan as substrate preincubated for 15 mins followed by NADPH addition measured after 8 mins by LC-MS/MS analysis; type: ADME
Cytochrome P450 2C9 = Cytochrome P450 2C9 (Homo sapiens, UniProt P11712); assay: Inhibition of CYP2C9 in human liver microsomes using diclofenac as substrate preincubated for 15 mins followed by NADPH addition measured after 8 mins by LC-MS/MS analysis; type: ADME
[2] = Unbound brain to plasma concentration ratio in Sprague-Dawley rat at 0.2 to […], iv administered as cassette dose measured at […] post dose by LC-MS/MS analysis; type: ADME, organism-based; conditions: brain and plasma, read-out: K(p,uu,brain)
[3] = molecular target: T2, Metabotropic glutamate receptor 8 (Rattus norvegicus, UniProt P70579); assay: Positive allosteric modulation of rat mGlu8 receptor expressed in HEK cells co-expressing Galphai5 assessed as increase in glutamate-induced calcium flux incubated for 142 secs followed by glutamate addition measured after 120 secs by Fluo4-AM dye based fluorescence assay; type: functional, cell-based
[4] = molecular target: T3, Metabotropic glutamate receptor 4 (Homo sapiens, UniProt Q14833); assay: Positive allosteric modulation of human mGlu4 receptor expressed in CHO cells co-expressing Gqi5 assessed as increase in glutamate-induced calcium mobilization incubated for 142 secs followed by glutamate addition measured after 120 secs by Fluo4-AM dye based fluorescence assay; type: functional, cell-based
[5] = molecular target: T4, Metabotropic glutamate receptor 7 (Rattus norvegicus, UniProt P35400); assay: Positive allosteric modulation of rat mGlu7 receptor expressed in HEK cells co-expressing Galphai5 assessed as increase in glutamate-induced calcium flux incubated for 142 secs followed by glutamate addition measured after 120 secs by Fluo4-AM dye based fluorescence assay; type: functional, cell-based
[6] = molecular target: T4, Metabotropic glutamate receptor 7; assay: Negative allosteric modulation of rat mGlu7 receptor expressed in HEK cells co-expressing Galphai5 assessed as decrease in glutamate-induced thallium flux incubated for 142 secs followed by glutamate addition measured after 120 secs by Fluo4-AM dye based fluorescence assay; type: functional, cell-based
[7] = molecular target: T2, Metabotropic glutamate receptor 8; assay: Negative allosteric modulation of rat mGlu8 receptor expressed in HEK cells co-expressing Galphai5 assessed as decrease in glutamate-induced thallium flux incubated for 142 secs followed by glutamate addition measured after 120 secs by Fluo4-AM dye based fluorescence assay; type: functional, cell-based
[8] = molecular target: T3, Metabotropic glutamate receptor 4; assay: Negative allosteric modulation of human mGlu4 receptor expressed in CHO cells co-expressing Gqi5 harboring GIRK channel assessed as decrease in glutamate-induced thallium flux incubated for 142 secs followed by glutamate addition measured after 120 secs by Fluo4-AM dye based fluorescence assay; type: functional, cell-based

Sequence of Cytochrome P450 2C9 (P11712 whole entry): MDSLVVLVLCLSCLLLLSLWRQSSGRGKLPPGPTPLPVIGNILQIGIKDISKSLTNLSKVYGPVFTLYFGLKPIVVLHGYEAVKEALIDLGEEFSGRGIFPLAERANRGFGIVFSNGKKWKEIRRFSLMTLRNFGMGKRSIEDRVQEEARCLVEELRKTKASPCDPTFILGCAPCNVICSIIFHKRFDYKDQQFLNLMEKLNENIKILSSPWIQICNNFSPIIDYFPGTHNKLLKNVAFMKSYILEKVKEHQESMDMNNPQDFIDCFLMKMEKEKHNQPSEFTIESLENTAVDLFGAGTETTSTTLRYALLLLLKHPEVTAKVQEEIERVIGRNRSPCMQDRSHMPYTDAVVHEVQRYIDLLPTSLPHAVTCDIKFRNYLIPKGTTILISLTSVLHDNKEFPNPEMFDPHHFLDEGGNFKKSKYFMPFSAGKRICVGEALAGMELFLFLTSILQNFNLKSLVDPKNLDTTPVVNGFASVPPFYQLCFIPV
Sequence of Cytochrome P450 2D6 (P10635 whole entry): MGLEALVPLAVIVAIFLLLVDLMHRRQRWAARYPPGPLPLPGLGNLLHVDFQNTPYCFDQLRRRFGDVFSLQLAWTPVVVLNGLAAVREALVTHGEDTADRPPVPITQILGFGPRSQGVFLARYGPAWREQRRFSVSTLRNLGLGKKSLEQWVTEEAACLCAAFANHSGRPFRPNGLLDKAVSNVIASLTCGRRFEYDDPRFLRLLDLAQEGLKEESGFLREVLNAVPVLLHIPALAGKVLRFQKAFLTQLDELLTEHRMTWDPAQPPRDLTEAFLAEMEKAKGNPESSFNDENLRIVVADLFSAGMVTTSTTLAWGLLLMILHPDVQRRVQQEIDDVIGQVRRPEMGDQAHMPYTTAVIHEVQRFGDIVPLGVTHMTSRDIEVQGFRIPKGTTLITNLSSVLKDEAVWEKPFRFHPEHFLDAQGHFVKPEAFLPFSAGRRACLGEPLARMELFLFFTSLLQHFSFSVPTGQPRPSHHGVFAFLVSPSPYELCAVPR
Sequence of Cytochrome P450 3A4 (P08684 whole entry): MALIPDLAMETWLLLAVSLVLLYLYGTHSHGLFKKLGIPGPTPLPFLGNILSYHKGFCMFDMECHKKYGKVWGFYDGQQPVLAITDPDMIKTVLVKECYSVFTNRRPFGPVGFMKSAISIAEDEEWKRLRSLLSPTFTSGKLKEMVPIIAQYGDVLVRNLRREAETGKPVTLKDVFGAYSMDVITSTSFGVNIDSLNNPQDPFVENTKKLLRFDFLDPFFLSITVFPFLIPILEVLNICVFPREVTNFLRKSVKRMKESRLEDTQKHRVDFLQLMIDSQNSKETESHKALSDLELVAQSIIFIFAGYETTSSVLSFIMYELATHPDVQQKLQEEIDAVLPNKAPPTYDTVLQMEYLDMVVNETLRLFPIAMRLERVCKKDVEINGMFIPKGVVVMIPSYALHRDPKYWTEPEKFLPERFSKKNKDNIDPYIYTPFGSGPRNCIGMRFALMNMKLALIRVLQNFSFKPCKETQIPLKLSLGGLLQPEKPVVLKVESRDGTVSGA
T4 sequence (P35400 whole entry): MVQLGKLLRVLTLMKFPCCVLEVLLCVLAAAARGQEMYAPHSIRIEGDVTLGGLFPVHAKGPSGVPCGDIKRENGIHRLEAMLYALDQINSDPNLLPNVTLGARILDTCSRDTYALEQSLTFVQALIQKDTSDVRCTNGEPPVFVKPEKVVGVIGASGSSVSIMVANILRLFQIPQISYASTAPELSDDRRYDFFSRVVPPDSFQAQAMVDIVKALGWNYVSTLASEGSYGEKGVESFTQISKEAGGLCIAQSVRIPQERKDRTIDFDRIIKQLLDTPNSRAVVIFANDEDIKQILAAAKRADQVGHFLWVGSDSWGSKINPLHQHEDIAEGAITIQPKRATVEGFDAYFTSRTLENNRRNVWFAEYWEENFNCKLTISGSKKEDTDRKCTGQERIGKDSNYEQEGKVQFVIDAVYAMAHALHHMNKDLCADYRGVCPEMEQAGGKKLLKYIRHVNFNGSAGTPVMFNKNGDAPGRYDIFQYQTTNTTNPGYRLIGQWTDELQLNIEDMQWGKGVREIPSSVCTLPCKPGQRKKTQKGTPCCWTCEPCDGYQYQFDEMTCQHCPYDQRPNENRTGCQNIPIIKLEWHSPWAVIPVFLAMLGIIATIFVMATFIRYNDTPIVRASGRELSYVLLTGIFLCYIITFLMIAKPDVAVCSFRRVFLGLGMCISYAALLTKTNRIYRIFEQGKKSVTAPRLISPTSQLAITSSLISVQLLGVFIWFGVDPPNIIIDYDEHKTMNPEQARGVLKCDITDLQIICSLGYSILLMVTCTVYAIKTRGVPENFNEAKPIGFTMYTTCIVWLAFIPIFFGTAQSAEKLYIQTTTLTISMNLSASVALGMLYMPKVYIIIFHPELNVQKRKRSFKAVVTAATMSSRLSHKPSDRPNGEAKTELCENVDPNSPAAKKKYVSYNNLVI
T2 sequence (P70579 whole entry): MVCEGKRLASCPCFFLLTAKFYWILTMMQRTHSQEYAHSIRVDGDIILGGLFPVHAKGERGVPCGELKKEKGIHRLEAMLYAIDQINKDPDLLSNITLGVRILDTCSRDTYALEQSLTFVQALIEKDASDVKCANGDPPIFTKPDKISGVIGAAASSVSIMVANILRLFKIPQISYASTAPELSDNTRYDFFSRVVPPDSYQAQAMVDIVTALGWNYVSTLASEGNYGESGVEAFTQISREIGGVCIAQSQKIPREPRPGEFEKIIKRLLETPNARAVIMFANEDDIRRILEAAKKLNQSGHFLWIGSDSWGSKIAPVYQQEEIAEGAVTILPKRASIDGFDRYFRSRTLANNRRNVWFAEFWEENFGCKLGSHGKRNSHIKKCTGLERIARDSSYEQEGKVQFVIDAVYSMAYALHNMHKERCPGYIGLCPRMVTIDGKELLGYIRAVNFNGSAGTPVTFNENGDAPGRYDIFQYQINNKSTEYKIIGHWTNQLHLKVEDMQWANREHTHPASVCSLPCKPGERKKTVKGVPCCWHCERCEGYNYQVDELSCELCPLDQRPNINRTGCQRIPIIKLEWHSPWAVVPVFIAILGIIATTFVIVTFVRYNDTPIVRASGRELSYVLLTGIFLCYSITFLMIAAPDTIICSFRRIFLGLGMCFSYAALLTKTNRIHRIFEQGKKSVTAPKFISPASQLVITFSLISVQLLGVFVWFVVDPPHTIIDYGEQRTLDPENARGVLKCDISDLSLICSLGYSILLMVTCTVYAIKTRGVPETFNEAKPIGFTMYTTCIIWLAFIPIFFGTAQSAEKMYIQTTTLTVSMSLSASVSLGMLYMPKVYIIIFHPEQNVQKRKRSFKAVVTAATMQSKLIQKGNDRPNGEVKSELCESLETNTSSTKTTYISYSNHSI
T3 sequence (Q14833 whole entry): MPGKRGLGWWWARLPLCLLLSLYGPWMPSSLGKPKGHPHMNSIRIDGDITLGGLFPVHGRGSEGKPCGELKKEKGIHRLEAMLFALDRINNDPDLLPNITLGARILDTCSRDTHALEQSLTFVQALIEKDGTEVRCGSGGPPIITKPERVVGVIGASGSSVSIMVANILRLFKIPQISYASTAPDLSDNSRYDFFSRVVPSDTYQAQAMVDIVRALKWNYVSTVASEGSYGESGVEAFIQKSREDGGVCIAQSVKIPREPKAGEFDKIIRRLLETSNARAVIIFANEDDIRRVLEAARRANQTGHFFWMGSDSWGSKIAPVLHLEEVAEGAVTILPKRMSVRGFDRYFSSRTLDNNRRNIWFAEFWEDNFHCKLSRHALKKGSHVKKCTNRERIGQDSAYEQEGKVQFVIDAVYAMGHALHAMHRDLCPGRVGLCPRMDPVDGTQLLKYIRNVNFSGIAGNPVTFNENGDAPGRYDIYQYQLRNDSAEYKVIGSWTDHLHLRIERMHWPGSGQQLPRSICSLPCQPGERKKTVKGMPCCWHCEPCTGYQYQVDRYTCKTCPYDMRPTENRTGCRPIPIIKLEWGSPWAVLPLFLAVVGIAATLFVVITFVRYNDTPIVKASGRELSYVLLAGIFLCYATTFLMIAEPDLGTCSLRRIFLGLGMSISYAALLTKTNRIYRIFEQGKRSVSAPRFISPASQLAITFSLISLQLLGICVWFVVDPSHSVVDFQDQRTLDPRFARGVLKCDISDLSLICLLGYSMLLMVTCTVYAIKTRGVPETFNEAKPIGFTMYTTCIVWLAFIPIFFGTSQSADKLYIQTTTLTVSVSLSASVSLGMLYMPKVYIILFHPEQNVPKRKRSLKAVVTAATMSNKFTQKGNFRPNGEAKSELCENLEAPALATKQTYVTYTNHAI

Structure (SMILES) | Kp at […] [1] | IC50 (Cytochrome P450 1A2) [µM] | IC50 (Cytochrome P450 3A4) [µM] | IC50 (Cytochrome P450 2D6) [µM] | IC50 (Cytochrome P450 2C9) [µM] | Kp uu at […] [2] | other results
COc1ccc(-c2c(C)nn3c(C(F)(F)F)cc(C)nc23)cc1 | 1.4 | 0.69 | > 30 | > 30 | > 30 |  | 
COc1ccc(-c2c(C)nn3c(C(F)(F)F)cc(C)nc23)c(F)c1 | 1.4 |  |  |  |  | 0.9 | 
COc1cc(F)c(-c2c(C)nn3c(C(F)(F)F)cc(C)nc23)cc1F | 2.7 | 2.93 | > 30 | > 30 | > 30 |  | 
COc1ccc(-c2c(C)nn3c(C(F)(F)F)cc(C)nc23)cc1F | 4.3 | 0.33 | > 30 | > 30 | 27 |  | 
COC(=O)c1ccc(-n2c(C)cc(C(=O)CSc3ccc(NC(C)=O)cc3)c2C)cc1 |  |  |  |  |  |  | EC50 [3]: 0.9 µM; EC50 [4]: 3.2 µM; EC50 [5]: 1.5 µM
CCc1nc2c(o1)CC(c1ccc(C)cc1C)CC2=O (configuration not stated) |  |  |  |  |  |  | IC50 [6]: 0.65 µM; IC50 [7]: > 10 µM; IC50 [8]: > 10 µM
Cc1cc(C(F)(F)F)n2nc(C)c(-c3ccc(OC(F)F)cc3)c2n1 | 1.5 |  |  |  |  | 0.8 | 
COc1cc(F)c(-c2c(C)nn3c(C(F)(F)F)cc(C)nc23)c(F)c1 | 2.2 | 8.67 | > 30 | > 30 | > 30 |  | 
COc1ccc(-c2c(C)nn3c(C(F)(F)F)cc(C)nc23)cc1Cl | 4.8 |  |  |  |  | 1.7 | 

Reference: ChEMBL document CHEMBL4138139, “Discovery of VU6005649, a CNS Penetrant mGlu7/8 Receptor PAM Derived from a Series of Pyrazolo[1,5-a]pyrimidines” (ACS Med Chem Lett, 2017)
